Experimental findings from ChEMBL document CHEMBL1144908, “5-HT4 receptor ligands: applications and new prospects” (J Med Chem, 2003) are described below.

One may read the EC50 as the midpoint of the concentration-response curve. For orientation: Ki means the dissociation constant of the complex between target and ligand, obtained from inhibition or displacement. Low values mean a stronger hold on the target, high ones a looser hold on the target.

For one test, the species on record is Rattus norvegicus. The test is described as follows: Tested for affinity towards 5-HT receptor in relaxation of carbachol contracted rat oesophaga muscularis. It is filed as functional.
The target in test [1] is 5-hydroxytryptamine receptor 4 (Rattus norvegicus) (UniProt Q62758). The test is described as follows: Tested for affinity towards 5-hydroxytryptamine 4 receptor in relaxation of rat oesophagus.
Sequence of 5-hydroxytryptamine receptor 4 (Rattus norvegicus) (Q62758 whole entry): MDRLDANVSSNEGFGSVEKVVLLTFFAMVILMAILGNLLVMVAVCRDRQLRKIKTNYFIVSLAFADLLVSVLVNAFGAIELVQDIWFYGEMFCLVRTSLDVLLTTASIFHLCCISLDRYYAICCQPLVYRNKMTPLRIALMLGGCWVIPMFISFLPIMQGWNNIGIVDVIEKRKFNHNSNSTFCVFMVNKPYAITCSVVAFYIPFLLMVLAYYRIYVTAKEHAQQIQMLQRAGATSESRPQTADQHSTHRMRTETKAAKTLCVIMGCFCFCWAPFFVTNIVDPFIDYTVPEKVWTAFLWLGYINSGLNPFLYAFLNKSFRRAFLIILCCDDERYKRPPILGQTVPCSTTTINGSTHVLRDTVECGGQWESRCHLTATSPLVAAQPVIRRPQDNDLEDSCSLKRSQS
In test [2] the target is 5-hydroxytryptamine receptor 4 (Mus musculus) (UniProt P97288). Briefly: Tested for 5-hydroxytryptamine 4 binding affinity against cisapride.
Sequence of 5-hydroxytryptamine receptor 4 (Mus musculus) (P97288 whole entry, looked up): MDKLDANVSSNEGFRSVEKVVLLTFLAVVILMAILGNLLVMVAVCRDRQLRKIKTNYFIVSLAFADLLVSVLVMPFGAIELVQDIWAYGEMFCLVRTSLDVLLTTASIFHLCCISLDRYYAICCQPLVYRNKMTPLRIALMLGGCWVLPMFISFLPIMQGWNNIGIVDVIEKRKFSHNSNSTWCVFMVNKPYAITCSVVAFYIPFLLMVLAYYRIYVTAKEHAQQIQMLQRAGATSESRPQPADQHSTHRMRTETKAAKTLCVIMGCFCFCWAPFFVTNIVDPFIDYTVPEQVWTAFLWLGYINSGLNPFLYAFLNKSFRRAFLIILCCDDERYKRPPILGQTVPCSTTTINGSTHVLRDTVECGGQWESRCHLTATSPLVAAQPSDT
For test [3] the target is unchanged. The test is described as follows: Tested for 5-hydroxytryptamine 4 binding affinity against renzapride.
Test [4] has the same target. The test is described as follows: Tested for 5-hydroxytryptamine 4 binding affinity against zacopride.
For test [5], the target named is Serotonin 3 (5-HT3) receptor. The test is described as follows: (§1) Compound was tested for 5-hydroxytryptamine 3 receptor binding affinity. The class given is protein-complex assay.
The target of test [6] is T1, 5-hydroxytryptamine receptor 4 (Homo sapiens, UniProt Q13639). The test is described as follows: (§2) Tested for 5-hydroxytryptamine 4 receptor antagonist activity. The class given is functional.
T1 sequence (Q13639 whole entry): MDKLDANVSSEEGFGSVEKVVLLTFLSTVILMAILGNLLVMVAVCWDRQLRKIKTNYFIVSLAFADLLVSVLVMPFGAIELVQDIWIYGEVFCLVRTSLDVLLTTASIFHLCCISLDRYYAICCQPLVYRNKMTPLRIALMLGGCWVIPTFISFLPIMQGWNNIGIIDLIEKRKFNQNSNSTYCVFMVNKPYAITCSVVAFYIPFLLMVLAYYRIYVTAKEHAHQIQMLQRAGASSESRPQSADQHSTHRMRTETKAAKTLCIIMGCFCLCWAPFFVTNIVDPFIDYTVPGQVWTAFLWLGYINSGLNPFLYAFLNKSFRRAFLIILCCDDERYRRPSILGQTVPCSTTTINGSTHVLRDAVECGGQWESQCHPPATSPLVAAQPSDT
The target of test [7] is T1, 5-hydroxytryptamine receptor 4. The test is described as §2. It is filed as functional. This is another data set of the same source.
Test [8] addresses T2, 5-hydroxytryptamine receptor 3A (Homo sapiens, UniProt P46098).
T2 sequence (P46098 whole entry): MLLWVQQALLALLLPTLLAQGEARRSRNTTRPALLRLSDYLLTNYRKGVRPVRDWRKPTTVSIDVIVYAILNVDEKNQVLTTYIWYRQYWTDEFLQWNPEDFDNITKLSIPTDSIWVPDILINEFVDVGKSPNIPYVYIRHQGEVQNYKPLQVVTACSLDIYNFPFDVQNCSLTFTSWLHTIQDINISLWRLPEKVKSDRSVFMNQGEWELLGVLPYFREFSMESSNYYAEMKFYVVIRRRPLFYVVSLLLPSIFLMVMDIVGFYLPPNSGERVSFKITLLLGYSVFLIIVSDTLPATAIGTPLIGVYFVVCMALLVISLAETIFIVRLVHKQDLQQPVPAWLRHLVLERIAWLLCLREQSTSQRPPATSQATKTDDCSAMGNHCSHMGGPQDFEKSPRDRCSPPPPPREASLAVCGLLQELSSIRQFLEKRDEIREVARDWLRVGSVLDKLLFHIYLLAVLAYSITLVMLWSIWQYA
Described as §1.

The target of test [9] is 5-hydroxytryptamine receptor 4 (Rattus norvegicus, UniProt Q62758). Briefly: Efficient 5-hydroxytryptamine 4 agonist in the rat tunica muscularis mucosae. It is filed as functional, tissue-based, Muscularis mucosa.
Sequence of 5-hydroxytryptamine receptor 4 (Rattus norvegicus, UniProt Q62758) (Q62758 whole entry): as the sequence (Q62758 whole entry) above
Test [10] has as its target 5-hydroxytryptamine receptor 4 (Cavia porcellus) (UniProt O70528). Briefly: Tested for affinity towards 5-hydroxytryptamine 4 receptor in electrically stimulated longitudinal muscle preparation of guinea pig ileum. The class given is tissue-based.
For test [11], the target named is T1, 5-hydroxytryptamine receptor 4. Described as §2. The class given is functional. The source holds these as a separate data set.
The target in test [12] is 5-hydroxytryptamine receptor 4 (Cavia porcellus) (UniProt O70528). The test is described as follows: Tested for affinity towards 5-hydroxytryptamine 4 receptor in guinea pig distal colon preparation. It is filed as tissue-based.
Sequence of 5-hydroxytryptamine receptor 4 (Cavia porcellus) (O70528 whole entry): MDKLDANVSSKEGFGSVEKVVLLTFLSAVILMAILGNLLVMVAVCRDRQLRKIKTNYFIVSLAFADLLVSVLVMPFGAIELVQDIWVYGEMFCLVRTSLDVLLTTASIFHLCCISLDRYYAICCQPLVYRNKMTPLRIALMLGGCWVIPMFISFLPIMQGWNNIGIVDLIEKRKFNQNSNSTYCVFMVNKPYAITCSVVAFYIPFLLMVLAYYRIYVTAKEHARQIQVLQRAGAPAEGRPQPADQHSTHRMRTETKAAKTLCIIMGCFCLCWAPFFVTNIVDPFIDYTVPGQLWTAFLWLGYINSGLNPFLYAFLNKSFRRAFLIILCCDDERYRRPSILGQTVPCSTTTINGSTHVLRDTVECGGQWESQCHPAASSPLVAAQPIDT
The nature of test [13]: Tested for potency against electrically stimulated myenteric plexus. The class given is functional.
In test [14] the target is T2, 5-hydroxytryptamine receptor 3A. Briefly: Tested for 5-hydroxytryptamine 3 receptor agonist activity. It is filed as functional.
Test [15] has as its target Serotonin 3 (5-HT3) receptor. Briefly: Tested for 5-hydroxytryptamine 3 receptor antagonist activity. The class given is functional.
Test [16] concerns the target T1, 5-hydroxytryptamine receptor 4. The test is described as follows: Tested for affinity towards 5-hydroxytryptamine 4 receptor.
A further test is filed under the species Cavia porcellus. Briefly: Tested for inhibitory activity against 5-HT induced contractions of guinea pig ileum. It is filed as functional.
Test [17] deals with 5-hydroxytryptamine receptor 4 (Cavia porcellus, UniProt O70528). Briefly: Tested for affinity against 5-hydroxytryptamine 4 receptor in the myenteric plexus of the guinea pig ileum. The class given is tissue-based.
Sequence of 5-hydroxytryptamine receptor 4 (Cavia porcellus, UniProt O70528) (O70528 whole entry): as above

The structures appear in SMILES notation.

In the test filed under Rattus norvegicus, `COc1cc(COc2cc(N)c(Cl)cc2C(=O)CCC2CCN(CCNS(C)(=O)=O)CC2)cc(OC)c1` returned an Activity of 9.2 pKi.

For the molecule `CCCCN1CCC(CCC(=O)c2cc(Cl)c(N)cc2OC)CC1`, the Activity in test [1] stood at 8.4 pEC50.

`COc1cc(N)c(Cl)cc1C(=O)NC1CC2CCC(C1)N2C` (centres undefined): the half-maximal effective concentration (EC50) is 72.4 nM in test [2], 126 nM in [3] and 1120 nM in [4].

Regarding `COc1cc(N)c(Cl)cc1C(=O)NC1CCN(CCCOc2ccc(F)cc2)CC1OC` (centres undefined) [CISAPRIDE], in [5], the Ki amounted to 152 nM. This lies in the sub-micromolar range.

As to `CC(C)n1c(=O)n(C(=O)NCCN2CCN(C)CC2)c2ccccc21`, the affinity in test [6] corresponds to a Ki of 91.9 nM. In test [7], the Intrinsic activity amounted to 0.94.

Turning to `COc1cc(N)c(Cl)cc1C(=O)NC[C@@H]1CCN2CCC[C@@H]12`, the Ki in test [8] amounted to 152 nM. The molecule also returned an EC50 in [9] of 23.7 nM.

In turn, `CCCCCNC(=N)N/N=C/c1c[nH]c2ccc(O)cc12` showed an Activity in test [10] of 9.3 pD2.

For the molecule `COc1cc(N)c(Cl)cc1C(=O)NC1CCN2C(C)CCCC2C1` (centres undefined) [BRL-20627], the EC50 in [2] is 72.4 nM; in test [3], 126 nM; in [4] it was 1120 nM.

As to `CC(C)N1CCN(CCNC(=O)n2c(=O)n(C3CC3)c3ccccc32)CC1`, the Ki in [6] is 6.7 nM; in [11], 16.6 nM.

Take `CCCCN1CCC(CNC(=O)c2c3n(c4ccccc24)CCCO3)CC1`: the Activity in [12] is 9.2 pIC50.

In [1], `COc1cc(N)c(Cl)cc1C(=O)CCC1CCN(CCNS(C)(=O)=O)CC1` yielded an Activity of 8.6 pEC50.

Take `CCCCCNC(=N)N/N=C/c1c[nH]c2ccc(OC)cc12`: the Activity in [10] amounted to 6.9 pD2.

With `COc1cc(COc2cc(N)c(Cl)cc2C(=O)CCCCN2CCCCC2)cc(OC)c1`, the Activity in the test listed under Rattus norvegicus is listed as 8.5 pKi.

Turning to `O=C(NCC1CCN2CCCCC2C1)c1c2n(c3ccccc13)CCCO2` (centres undefined), in [12], the Activity came out at 9.5 pIC50.

For `CCCCN1CCC(COC(=O)c2c3n(c4ccccc24)CCCO3)CC1`, in test [12], the Activity amounted to 10.6 pIC50.

On to `Nc1cc2c(cc1Cl)C(=O)NC1CCN(CCOCCO2)CC1`, for which the EC50 in test [13] was 69 nM. The same molecule had a Ki in test [14] of 53.2 nM.

For the molecule `CNC1(CNC(=O)c2cc(Cl)c(N)cc2OC)CCCC1`, the Ki in test [15] amounted to 9 nM.

`CCCCN1CCC(CNC(=O)c2cc(Cl)c(N)c3c2OCCO3)CC1` had an Activity in [16] of 9 pKa.

As to `N=C(N)N/N=C/c1c[nH]c2ccc(O)cc12`, in test [10], the Activity came out at 8.8 pD2.

Molecule `CCCCCN(C)C(=N)N/N=C/c1c[nH]c2c(C)cc(OC)cc12` had an Activity in the test filed under Cavia porcellus of 8.4 pA2.

In turn, `CCOc1cc(N)c(Cl)cc1C(=O)NCC1CN(Cc2ccc(F)cc2)CCO1` (centres undefined) [MOSAPRIDE] had a Ki in test [17] of 84 nM. This lies in the double-digit nanomolar range.
